± gives the standard deviation of the averaged measurements.
Experiments:
Test in all cases: level (log10 ratio to DMSO vehicle control); higher = higher biomarker level / cell amount than vehicle control
Conditions in all cases: in DMSO
[1] = compound: C=C(C)C(=O)OCC(F)(F)C(F)(F)C(F)(F)C(F)(F)C(F)(F)C(F)(F)C(F)(F)F
Experimental: (§1)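 BioMAP Diversity Plus panel of 12 human primary cell co-culture systems (3C, 4H, LPS, SAg, BT, BF4T, BE3C, CASM3C, HDF3CGF, KF3CT, MyoF, Mphg). Compounds were added 1 h before stimulation and left for 24 h (MyoF 48 h; BT 72 h for soluble read-outs or 6 d for IgG). Biomarkers were read by ELISA, cytotoxicity by SRB, PBMC viability and proliferation by Alamar Blue. Each well value was divided by the mean of 8 DMSO control wells on the same plate and log10 transformed; duplicate blinded samples were tested at 4 concentrations.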

[2] = compound: CNS(=O)(=O)C(F)(F)C(F)(F)C(F)(F)C(F)(F)C(F)(F)C(F)(F)C(F)(F)C(F)(F)F [N-Methylperfluorooctanesulfonamide]
Experimental: as §1

[3] = compound: Cn1cnc([N+](=O)[O-])c1Sc1ncnc2[nH]cnc12 [Azathioprine]
Experimental: as §1

[4] = compound: O=C(O)C(F)(F)C(F)(F)C(F)(F)C(=O)O [Hexafluoroglutaric acid]
Experimental: as §1

[5] = compound: O=C(O)C(F)(F)OC(F)(F)C(F)(F)OC(F)(F)C(F)(F)C(F)(F)C(F)(F)F [Perfluoro-3,6-dioxadecanoic acid]
Experimental: as §1

[6] = compound: O=C(O)CCC(F)(F)C(F)(F)C(F)(F)F [3:3 Fluorotelomer carboxylic acid]
Experimental: as §1

| Test System | level (log10) ([1]; 6700 nM) | level (log10) ([1]; 20000 nM) | level (log10) ([2]; 6700 nM) | level (log10) ([2]; 20000 nM) | level (log10) ([2]; 60000 nM) | level (log10) ([3]; 1400 nM) | level (log10) ([3]; 4200 nM) | level (log10) ([3]; 13000 nM) | level (log10) ([3]; 38000 nM) | level (log10) ([4]; 6700 nM) | level (log10) ([4]; 20000 nM) | level (log10) ([4]; 60000 nM) | level (log10) ([5]; 6700 nM) | level (log10) ([5]; 20000 nM) | level (log10) ([5]; 60000 nM) | level (log10) ([6]; 6700 nM) | level (log10) ([6]; 20000 nM) | level (log10) ([6]; 60000 nM) |
| --- | --- | --- | --- | --- | --- | --- | --- | --- | --- | --- | --- | --- | --- | --- | --- | --- | --- | --- |
| 3C:CCL2/MCP-1 | -0.013 ± 0.0042 | 0.018 ± 0.025 | 0.0175 ± 0.0021 | 0.0235 ± 0.028 | 0.031 ± 0.034 | 0.0095 ± 0.0064 | -0.006 | 0.009 ± 0.0014 | -0.0165 ± 0.015 | -0.0005 ± 0.0035 | 0.0095 ± 0.0035 | 0.028 ± 0.018 | 0.002 ± 0.0099 | 0.013 ± 0.0057 | 0.0195 ± 0.023 | -0.011 ± 0.013 | -0.0025 ± 0.005 | 0.022 ± 0.037 |
| 3C:CD54/ICAM-1 | 0.019 ± 0.028 | 0.014 ± 0.018 | -0.0265 ± 0.022 | 0.103 ± 0.026 | 0.043 ± 0.0014 | 0.0035 ± 0.005 | -0.014 ± 0.031 | -0.0085 ± 0.0092 | -0.016 ± 0.013 | -0.0125 ± 0.018 | -0.0165 ± 0.019 | -0.0175 ± 0.018 | -0.003 ± 0.028 | -0.0025 ± 0.018 | 0.019 ± 0.011 | -0.019 ± 0.0099 | -0.009 ± 0.023 | -0.0015 ± 0.023 |
| 3C:CD62E/E-Selectin | 0.0095 ± 0.023 | 0.0075 ± 0.0092 | -0.011 ± 0.025 | 0.01 ± 0.023 | -0.072 ± 0.011 | -0.0005 ± 0.012 | -0.013 ± 0.03 | -0.033 ± 0.0099 | -0.0015 ± 0.0078 | -0.0035 ± 0.053 | -0.002 ± 0.038 | 0.031 ± 0.014 | 0.0155 ± 0.043 | -0.001 ± 0.037 | 0.004 ± 0.052 | -0.006 ± 0.0042 | 0.001 ± 0.013 | 0.006 ± 0.0071 |
| 3C:CD106/VCAM-1 | -0.0145 ± 0.005 | -0.0025 ± 0.018 | -0.03 ± 0.038 | 0.049 ± 0.024 | -0.0295 ± 0.012 | 0.006 ± 0.017 | -0.0165 ± 0.0078 | -0.0245 ± 0.022 | -0.0595 ± 0.036 | 0.009 ± 0.018 | 0.004 ± 0.021 | -0.008 ± 0.0057 | 0.0005 ± 0.013 | -0.0035 ± 0.019 | -0.0135 ± 0.021 | -0.0135 ± 0.022 | -0.028 ± 0.024 | -0.019 ± 0.0085 |
| 3C:CD141/Thrombomodulin | -0.038 ± 0.0057 | -0.0015 ± 0.032 | -0.002 ± 0.0085 | -0.009 ± 0.018 | -0.0345 ± 0.013 | -0.0275 ± 0.026 | -0.0055 ± 0.036 | -0.041 ± 0.065 | -0.0855 ± 0.049 | -0.018 ± 0.017 | -0.014 ± 0.011 | -0.034 ± 0.0099 | -0.014 ± 0.048 | -0.0345 ± 0.039 | -0.016 ± 0.04 | -0.0105 ± 0.011 | -0.018 ± 0.047 | -0.006 ± 0.013 |
| 3C:CD142/Tissue Factor | -0.022 ± 0.058 | -0.005 ± 0.051 | -0.128 ± 0.0057 | -0.108 ± 0.031 | -0.106 ± 0.012 | 0.02 ± 0.024 | 0.0255 ± 0.046 | 0.042 ± 0.051 | 0.042 ± 0.02 | -0.006 ± 0.02 | -0.004 ± 0.028 | -0.0685 ± 0.005 | -0.0245 ± 0.059 | 0.0095 ± 0.015 | -0.074 ± 0.024 | -0.024 ± 0.0014 | 0.0015 ± 0.0078 | 0.0275 ± 0.011 |
| BE3C:Keratin 8/18 | -0.008 ± 0.017 | -0.028 ± 0.027 | -0.0025 ± 0.012 | -0.0135 ± 0.0078 | -0.0055 ± 0.023 | -0.009 ± 0.033 | 0.012 ± 0.014 | -0.02 ± 0.047 | -0.0095 ± 0.021 | -0.006 ± 0.0085 | -0.018 ± 0.0014 | -0.003 ± 0.0042 | -0.0075 ± 0.013 | -0.0135 ± 0.026 | 0.027 ± 0.0042 | 0.0025 ± 0.0021 | -0.003 ± 0.0042 | -0.023 ± 0.0057 |
| BE3C:MMP-1 | 0.02 ± 0.021 | 0.0655 ± 0.064 | 0.0895 ± 0.03 | 0.0995 ± 0.025 | 0.001 ± 0.054 | -0.0025 ± 0.013 | 0.001 ± 0.0057 | -0.0235 ± 0.019 | -0.0645 ± 0.0021 | -0.011 ± 0.0099 | -0.023 ± 0.016 | 0.007 ± 0.058 | 0.067 ± 0.0014 | 0.172 ± 0.0035 | 0.355 ± 0.021 | -0.006 ± 0.037 | -0.0235 ± 0.011 | 0.0125 ± 0.044 |
| BE3C:MMP-9 | 0 ± 0.0042 | -0.0005 ± 0.0092 | -0.094 ± 0.0014 | -0.11 ± 0.0057 | -0.102 ± 0.0064 | 0.0075 ± 0.046 | 0.0285 ± 0.04 | -0.0135 ± 0.03 | -0.0485 ± 0.028 | -0.0035 ± 0.023 | -0.0025 ± 0.032 | 0.0145 ± 0.042 | -0.005 ± 0.0099 | 0.007 ± 0.031 | -0.0195 ± 0.0021 | -0.0025 ± 0.022 | 0.0085 ± 0.0078 | -0.0085 ± 0.025 |
| BE3C:PAI-I | 0.0055 ± 0.0078 | 0.0105 ± 0.018 | -0.157 ± 0.013 | -0.162 ± 0.029 | -0.138 ± 0.025 | -0.0235 ± 0.044 | 0.015 ± 0.042 | 0.003 ± 0.05 | -0.071 ± 0.03 | -0.0205 ± 0.016 | -0.014 ± 0.027 | 0.002 ± 0.03 | 0.0345 ± 0.021 | 0.009 ± 0.031 | -0.11 ± 0.005 | -0.0095 ± 0.00071 | -0.0025 ± 0.015 | 0.0005 ± 0.0078 |
| BE3C:SRB | -0.0015 ± 0.0021 | -0.0025 ± 0.00071 | -0.0085 ± 0.00071 | -0.014 ± 0.0085 | 0.0005 ± 0.029 | 0.013 ± 0.016 | -0.005 | -0.0095 ± 0.0078 | -0.0045 ± 0.0092 | 0.0035 ± 0.0035 | -0.005 | 0.0125 ± 0.012 | -0.0015 ± 0.0064 | -0.0095 ± 0.013 | -0.0435 ± 0.022 | -0.0065 ± 0.0064 | -0.0065 ± 0.005 | 0.001 ± 0.013 |
| BE3C:tPA | -0.013 ± 0.0014 | 0.007 | 0.186 ± 0.0057 | 0.192 ± 0.0099 | 0.176 ± 0.005 | -0.005 ± 0.078 | -0.0285 ± 0.083 | -0.108 ± 0.083 | -0.236 ± 0.079 | -0.008 ± 0.0014 | -0.0465 ± 0.005 | -0.0085 ± 0.022 | -0.0345 ± 0.029 | -0.09 ± 0.04 | -0.156 ± 0.018 | -0.0195 ± 0.0035 | -0.03 ± 0.016 | -0.0365 ± 0.015 |
| BE3C:uPA | -0.008 ± 0.011 | -0.004 ± 0.021 | 0.008 ± 0.0085 | 0.0065 ± 0.0064 | 0.003 ± 0.0014 | -0.0025 ± 0.016 | 0 ± 0.013 | -0.0115 ± 0.019 | -0.041 ± 0.016 | -0.01 ± 0.0085 | -0.017 ± 0.0042 | -0.0075 ± 0.011 | 0.006 ± 0.025 | -0.0045 ± 0.025 | -0.003 ± 0.011 | -0.0045 ± 0.023 | -0.018 ± 0.017 | -0.0115 ± 0.0021 |
| CASM3C:CCL2/MCP-1 | -0.015 ± 0.0042 | 0.007 ± 0.018 | 0.0095 ± 0.022 | 0.0295 ± 0.012 | 0.0645 ± 0.039 | 0.0135 ± 0.044 | -0.012 ± 0.014 | -0.0195 ± 0.021 | -0.001 ± 0.052 | -0.0115 ± 0.033 | -0.024 ± 0.025 | 0.0205 ± 0.039 | -0.012 ± 0.0085 | -0.0175 ± 0.013 | 0.043 ± 0.069 | -0.011 ± 0.021 | -0.015 ± 0.0028 | -0.0135 ± 0.022 |
| CASM3C:CD87/uPAR | 0.0005 ± 0.0035 | 0.003 ± 0.023 | -0.0035 ± 0.0064 | -0.0255 ± 0.022 | -0.0495 ± 0.013 | 0.0115 ± 0.0021 | 0.014 ± 0.0099 | -0.002 ± 0.067 | -0.0325 ± 0.0035 | -0.001 ± 0.014 | -0.0185 ± 0.033 | -0.0075 ± 0.0035 | 0.001 ± 0.0014 | -0.0055 ± 0.0064 | -0.0175 ± 0.025 | -0.01 ± 0.0071 | 0.002 ± 0.011 | -0.01 ± 0.018 |
| CASM3C:CD106/VCAM-1 | 0.011 ± 0.0014 | -0.0155 ± 0.046 | -0.088 ± 0.044 | -0.14 ± 0.061 | -0.0895 ± 0.06 | -0.0125 ± 0.022 | -0.0155 ± 0.0092 | -0.0485 ± 0.018 | -0.136 ± 0.023 | -0.0105 ± 0.03 | -0.0125 ± 0.036 | 0.012 ± 0.011 | 0.001 ± 0.011 | -0.0145 ± 0.0092 | 0.0065 ± 0.037 | -0.0255 ± 0.0035 | -0.03 ± 0.0057 | -0.0295 ± 0.015 |

Source: the supplement of paper PMC10331698
